The source of these data is patent US6117845A, “C-linked analogs of N-(4-hydroxyphenyl) retinamide” (Ohio State University Research Foundation, priority 1999, dated 2000).

The test system of data set [1] is serum retinol-binding protein (RBP). The data set can be described thus: Serum retinol binding protein binding study (competition with tritiated all-trans retinol). Particulars: human RBP 0.1 μg/μl, 250 nM all-trans-(3H)-ROL, 4° C., FIG. 3. The method, then: RBP (human) was obtained commercially (Sigma). RBP (0.1 μg/μl) was incubated with 250 nM all-trans-(^3 H)-ROL (approx. 5 Ci/mmole) with and without competing ligands at 4° C. for 3 hours. Tritiated retinoid-labeled protein-containing extracts were treated with dextran-coated charcoal to remove unbound ligand before subjecting samples to sedimentation analysis on 5 to 20% sucrose density gradients. ^14 C-Labeled proteins were included with samples as internal sedimentation standards. Gradients were centrifuged at 257,000 g for 20 hours at 4° C. followed by fractionation and analysis of radioactivity.

Another data set concerns LA1-15n cells. The data set can be described thus: Assay for cell growth inhibition, LA1-15n cells, 48 h. In kind it is cell-based. The settings on record: human neuroblastoma LA1-15n cells, 0.1, 1 or 10 μM, FIG. 2. The protocol: (§1) All-trans retinoic acid (atRA) was purchased from Eastman Kodak, Rochester, N.Y. Stock solutions were prepared in 100% ethanol and concentrations were determined on a Shimadzu UV-2100 spectrophotometer (4-HBR: λmax=380nm, ε=39,891; 4-HPR: λmax=365 nm, ε=47,900; atRA: λmax=340 nm, ε=45,300). Compound purity was assessed using a Waters HPLC-PDA with a 600E solvent delivery system using a Zorbax ODS, 250×4.6 mm, 5 micron column (Phenomenex, Torrance, Calif.). The column was equilibrated in 88% methanol/water with 10 mM ammonium acetate (flow rate of 1 ml/min). 4-HBR eluted at about 18 min., 4-HPR at about 12 min., and atRA at about 8 min with estimated purities of 96%, 100% and 100% respectively. Retinoids were blanketed with argon and stored at -70° C. until use. […]
Cells (100,000 cells) were passed into a 25 cm^3 flask in 10 ml of medium. […] Two 20 μl aliquots were counted from each treatment group on a Nikon Diaphot 200 fluorescent microscope. Four out of five fields were counted on each side of the hemocytometer. Fluorescence was used to count the number of live cells and phase-contrast was used to count the number of total cells. The average number of live cells per field was divided by the total number of cells per field and expressed as a percentage of the control. […]

In a further data set the test system is MCF7 cells. Kind of data set: Assay for cell growth inhibition, MCF-7 cells, 72 h. Particulars: human mammary carcinoma MCF-7 cells, 0.1, 1 or 10 μM, FIG. 1. In kind it is cell-based. The protocol:
as §1, with “respectively.” for “respectively. Retinoids were blanketed with argon and stored at -70° C. until use.”
Cells (100,000 cells) were passed into a 25 cm^3 flask in 10 ml of medium. […] Two 20 μl aliquots were counted from each treatment group on a Nikon Diaphot 200 fluorescent microscope. Four out of five fields were counted on each side of the hemocytometer. Fluorescence was used to count the number of live cells and phase-contrast was used to count the number of total cells. The average number of live cells per field was divided by the total number of cells per field and expressed as a percentage of the control.
The antiproliferative activity of 4-HPR, 4-HBR, and atRA against MCF-7 human mammary tumor cell culture models was determined using the above-described protocol. […]

Another data set can be described thus: Acid stability of 4-HBR. Format: physicochemical. Particulars: 0.1 N methanolic HCl at 37° C. for 2 hours.

Turning to `CC1=C(/C=C/C(C)=C/C=C/C(C)=C/C(=O)Cc2ccc(O)cc2)C(C)(C)CCC1` [compound 16, 4-hydroxybenzyl retinone], the “affinity for serum RBP relative to 4-HPR” value in data set [1] was “binds to serum RBP with less affinity than does 4-HPR”. In the data set on LA1-15n cells, the “growth inhibition of LA1-15n cells (viability, live cells as percentage of control)” value was “inhibits the growth of LA1-15n cells in a dose-dependant fashion”. The “growth inhibition of MCF7 cells (viability, live cells as percentage of control)” value in the data set with MCF7 cells is on record as “inhibits the growth of MCF7 cells in a dose-dependant fashion”. Besides, the “stability under acidic conditions” value in the data set “Acid stability of 4-HBR” was “remained intact”.
